Test results taken from PubChem BioAssay AID1159564 (GlaxoSmithKline (GSK), 2015).
Activity calls are given as the source filed them. The rule behind the calls is not given here.

Test system: L. donovani-infected THP-1 macrophages, intracellular amastigote imaging
Assay: intracellular L. donovani amastigote inhibition, imaging, THP-1 host macrophages, host toxicity (AID 1159564)
[1] = measured here: THP-1 host cell toxicity
[2] = measured here: amastigotes per macrophage

SMILES | IC50 | IC50 [1] [µM] | IC50 [2] [µM]
Cc1ccc(-c2csc(NC(=O)C=Cc3ccc(S(=O)(=O)N4CCOCC4)cc3)n2)o1 | 5 µM | > 50 | 0.79
O=C(CN1CCC2(O)CCCCC2C1c1ccc2c(c1)OCO2)Nc1ccc(Cl)cc1Cl (centres undefined) | 3.2 µM | > 50 | 1.3
COc1ccc(NS(=O)(=O)c2cccc(NC(=O)c3cc(F)cc(F)c3)c2)cc1 | > 50 µM (inactive) | > 50 | 20
O=C(Nc1ccccc1C(=O)Nc1ccccn1)c1ccco1 | > 50 µM (inactive) | > 50 | > 50
COc1ccc([N+](=O)[O-])cc1NC(=O)c1cc(Cl)ccc1O | 2 µM | 10 | 1.6
COc1cnc2ccc(=O)n(CCN3CCC(NC(=O)c4ccc(Cl)cc4)CC3)c2c1 | > 50 µM (inactive) | > 50 | 4
O=C(NCCc1csc(-c2cccc(F)c2)n1)c1ccco1 | > 50 µM (inactive) | > 50 | > 50
O=[N+]([O-])c1cccc(Nc2cncc(-c3ccccc3CO)c2)c1 | > 50 µM (inactive) | > 50 | > 50
